We go through three compounds from US10231453B2, “5-substituted imidazole derivatives” (BAYER CROPSCIENCE AKTIENGESELLSCHAFT, priority 2015, dated 2019).

The first series relates to Alternaria solani. Description: In vivo preventive Alternaria test (tomatoes), Example H. Conditions: 72 h, 100 ppm of active ingredient, preventive spray, evaluated 3 days after inoculation, read-out: efficacy.
In the case of `C#Cc1cncn1CC(O)(Cc1ccccc1Cl)C1(Cl)CC1` (stereo not drawn) [Example I-38], the pest or weed control at 100 ppm was 90 to 100%.
As to `N#Cc1cncn1CC(O)(Cc1cccc(F)c1F)C1(F)CC1` (stereo not drawn) [Example I-95], the pest or weed control at 100 ppm fell in the range of 90 to 100%.

The next series deals with Leptosphaeria nodorum. Briefly: In vivo preventive Leptosphaeria nodorum test (wheat), Example N. Conditions: Parastagonospora nodorum, 192 h, 500 ppm of active ingredient, preventive spray, evaluated 8 days after inoculation, read-out: efficacy. The source says: After the spray coating has been dried, the plants are sprayed with a spore suspension of Leptosphaeria nodorum.
For the compound `OC(Cc1ccccc1Cl)(Cn1cncc1Cl)C1(Cl)CC1` (stereo not drawn) [Example I-02], the pest or weed control at 500 ppm is 90 to 100%.
On to `C#Cc1cncn1CC(O)(Cc1ccccc1Cl)C1(Cl)CC1` (stereo not drawn) [Example I-38], for which the pest or weed control at 500 ppm lay within 80 to 89%.
In the case of `N#Cc1cncn1CC(O)(Cc1cccc(F)c1F)C1(F)CC1` (stereo not drawn) [Example I-95], the pest or weed control at 500 ppm fell in the range of 80 to 89%.

The subject of the next series is Pyricularia oryzae. Description: whole plant or invertebrate. Type of series: in vivo. Conditions: 192 h, read-out: efficacy.
For `OC(Cc1ccccc1Cl)(Cn1cncc1Cl)C1(Cl)CC1` (stereo not drawn) [Example I-02], the pest or weed control at 500 ppm was in the range of 70 to 79%.
Regarding `C#Cc1cncn1CC(O)(Cc1ccccc1Cl)C1(Cl)CC1` (stereo not drawn) [Example I-38], the pest or weed control at 500 ppm is 90 to 100%.
Turning to `N#Cc1cncn1CC(O)(Cc1cccc(F)c1F)C1(F)CC1` (stereo not drawn) [Example I-95], the pest or weed control at 500 ppm was 70 to 79%.

A further series deals with Alternaria brassicae. Description: In vivo preventive test on Alternaria brassicae (leaf spot on radish), Examples A and R1. Conditions: Alternaria brassicae, 144 h, 500 ppm of active ingredient, preventive spray, evaluated 6 days after inoculation, read-out: efficacy.
As for `OC(Cc1ccccc1Cl)(Cn1cncc1Cl)C1(Cl)CC1` (stereo not drawn) [Example I-02], the pest or weed control at 500 ppm was 90 to 100%.

For another series, the system named is Blumeria graminis fsp. hordei. Description: In vivo preventive Blumeria test (barley), Example K. Conditions: 168 h, 500 ppm of active ingredient, preventive spray, evaluated 7 days after inoculation, read-out: efficacy. From the text: After the spray coating has been dried, the plants are dusted with spores of Blumeria graminis fsp. hordei.
In the case of `OC(Cc1ccccc1Cl)(Cn1cncc1Cl)C1(Cl)CC1` (stereo not drawn) [Example I-02], the pest or weed control at 500 ppm lay within 90 to 100%.
As for `C#Cc1cncn1CC(O)(Cc1ccccc1Cl)C1(Cl)CC1` (stereo not drawn) [Example I-38], the pest or weed control at 500 ppm was 90 to 100%.
Take `N#Cc1cncn1CC(O)(Cc1cccc(F)c1F)C1(F)CC1` (stereo not drawn) [Example I-95]: the pest or weed control at 500 ppm was 90 to 100%.

Another series concerns Fusarium nivale (var. majus). Briefly: In vivo preventive Fusarium nivale (var. majus) test (wheat), Example O. Conditions: Microdochium nivale, 120 h, 500 ppm of active ingredient, preventive spray, evaluated 5 days after inoculation, read-out: efficacy. From the text:
After the spray coating has been dried, the plants are slightly injured by using a sandblast and afterwards they are sprayed with a conidia suspension of Fusarium nivale (var. majus).
On to `OC(Cc1ccccc1Cl)(Cn1cncc1Cl)C1(Cl)CC1` (stereo not drawn) [Example I-02], for which the pest or weed control at 500 ppm lay within 90 to 100%.
Regarding `C#Cc1cncn1CC(O)(Cc1ccccc1Cl)C1(Cl)CC1` (stereo not drawn) [Example I-38], the pest or weed control at 500 ppm lay within 90 to 100%.
With `N#Cc1cncn1CC(O)(Cc1cccc(F)c1F)C1(F)CC1` (stereo not drawn) [Example I-95], the pest or weed control at 500 ppm lay within 90 to 100%.

The next series relates to Venturia inaequalis. Briefly: In vivo preventive Venturia test (apples), Example J. Conditions: 240 h, read-out: efficacy.
Experimental: After the spray coating has dried on, the plants are inoculated with an aqueous conidia suspension of the causal agent of apple scab (Venturia inaequalis) and then remain for 1 day in an incubation cabinet at approximately 20° C. and a relative atmospheric humidity of 100%.
The plants are then placed in a greenhouse at approximately 21° C. and a relative atmospheric humidity of approximately 90%.
The test is evaluated 10 days after the inoculation.
Turning to `C#Cc1cncn1CC(O)(Cc1ccccc1Cl)C1(Cl)CC1` (stereo not drawn) [Example I-38], the pest or weed control at 100 ppm lay within 90 to 100%.
As for `N#Cc1cncn1CC(O)(Cc1cccc(F)c1F)C1(F)CC1` (stereo not drawn) [Example I-95], the pest or weed control at 100 ppm is 80 to 89%.

In the next series the test system is Fusarium graminearum. Description: whole plant or invertebrate. Conditions: in Hordeum vulgare, 120 h, read-out: efficacy. Type of series: in vivo.
`OC(Cc1ccccc1Cl)(Cn1cncc1Cl)C1(Cl)CC1` (stereo not drawn) [Example I-02]: the pest or weed control at 500 ppm was in the range of 80 to 89%.
`N#Cc1cncn1CC(O)(Cc1cccc(F)c1F)C1(F)CC1` (stereo not drawn) [Example I-95]: the pest or weed control at 500 ppm was in the range of 90 to 100%.

For the next series, the system named is Botrytis cinerea. Description: In vivo preventive test on Botrytis cinerea (grey mould) on gherkin, Examples B, Q1 and R2. Conditions: Botrytis cinerea, 500 ppm of active ingredient, preventive spray, evaluated 4 to 5 days after inoculation, read-out: efficacy.
Take `OC(Cc1ccccc1Cl)(Cn1cncc1Cl)C1(Cl)CC1` (stereo not drawn) [Example I-02]: the pest or weed control at 500 ppm was in the range of 90 to 100%.
Turning to `C#Cc1cncn1CC(O)(Cc1ccccc1Cl)C1(Cl)CC1` (stereo not drawn) [Example I-38], the pest or weed control at 500 ppm lay in the range of 90 to 100%.

A further series has as its system Septoria tritici. Description: In vivo preventive test on Septoria tritici (leaf spot on wheat), Examples E, Q3 and R5. Conditions: Zymoseptoria tritici, 576 h, 500 ppm of active ingredient; wheat, preventive spray, evaluated 24 days after inoculation; read-out: efficacy.
For the compound `OC(Cc1ccccc1Cl)(Cn1cncc1Cl)C1(Cl)CC1` (stereo not drawn) [Example I-02], the pest or weed control at 500 ppm fell in the range of 90 to 100%.
For `C#Cc1cncn1CC(O)(Cc1ccccc1Cl)C1(Cl)CC1` (stereo not drawn) [Example I-38], the pest or weed control at 500 ppm lay within 90 to 100%.
As to `N#Cc1cncn1CC(O)(Cc1cccc(F)c1F)C1(F)CC1` (stereo not drawn) [Example I-95], the pest or weed control at 500 ppm is 90 to 100%.

Tested on in the next series: not listed separately
Briefly: Measurement of LogP values by HPLC on reversed phase columns (EEC directive 79/831 Annex V.A8). Type of series: physicochemical. Conditions: method [a]: LC-UV, acidic range, 0.1% formic acid in water and acetonitrile as eluent; Table 1. Here is the method: Measurement of Log P values was performed as outlined above.
Take `OC(Cc1ccccc1Cl)(Cn1cncc1Cl)C1(Cl)CC1` (stereo not drawn) [Example I-02]: the chromatographic logP (commonly a lipophilicity value derived from retention on a column) is 2.32.
The compound `C#Cc1cncn1CC(O)(Cc1ccccc1Cl)C1(Cl)CC1` (stereo not drawn) [Example I-38] yielded a chromatographic logP of 2.09.
Same read-out and setting: next, `N#Cc1cncn1CC(O)(Cc1cccc(F)c1F)C1(F)CC1` (stereo not drawn) [Example I-95]: 2.37.

Still in this series, the particulars now being: method [c]: LC-UV, acidic range, 0.1% phosphoric acid and acetonitrile as eluent; Table 1.
In the case of `OC(Cc1ccccc1Cl)(Cn1cncc1Cl)C1(Cl)CC1` (stereo not drawn) [Example I-02], the chromatographic logP worked out at 2.

Another series relates to Pyrenophora teres. Description: In vivo preventive test on Pyrenophora teres (net blotch on barley), Examples D, Q2 and R4. Conditions: Pyrenophora teres, 336 h, 500 ppm of active ingredient, preventive spray, evaluated 14 days after inoculation, read-out: efficacy.
On to `OC(Cc1ccccc1Cl)(Cn1cncc1Cl)C1(Cl)CC1` (stereo not drawn) [Example I-02], for which the pest or weed control at 500 ppm lay within 90 to 100%.
Consider `C#Cc1cncn1CC(O)(Cc1ccccc1Cl)C1(Cl)CC1` (stereo not drawn) [Example I-38], for which the pest or weed control at 500 ppm fell in the range of 80 to 89%.
`N#Cc1cncn1CC(O)(Cc1cccc(F)c1F)C1(F)CC1` (stereo not drawn) [Example I-95]: the pest or weed control at 500 ppm lay in the range of 80 to 89%.

The test system of the next series is Fusarium culmorum. Description: In vivo preventive Fusarium culmorum test (wheat), Example L. Conditions: 120 h, 500 ppm of active ingredient, preventive spray, evaluated 5 days after inoculation, read-out: efficacy. The method, then:
After the spray coating has been dried, the plants are slightly injured by using a sandblast and afterwards they are sprayed with a conidia suspension of Fusarium culmorum.
The test is evaluated 5 days after the inoculation.
Turning to `OC(Cc1ccccc1Cl)(Cn1cncc1Cl)C1(Cl)CC1` (stereo not drawn) [Example I-02], the pest or weed control at 500 ppm was 70 to 79%.
For the compound `C#Cc1cncn1CC(O)(Cc1ccccc1Cl)C1(Cl)CC1` (stereo not drawn) [Example I-38], the pest or weed control at 500 ppm is 80 to 89%.
Same read-out and setting: next, `N#Cc1cncn1CC(O)(Cc1cccc(F)c1F)C1(F)CC1` (stereo not drawn) [Example I-95]: 90 to 100%.

Another series concerns Puccinia recondita. Description: In vivo preventive test on Puccinia recondita (brown rust on wheat), Examples C and R3. Conditions: Puccinia recondita, 264 h; 500 ppm of active ingredient; wheat, preventive spray, evaluated 11 days after inoculation; read-out: efficacy.
With `OC(Cc1ccccc1Cl)(Cn1cncc1Cl)C1(Cl)CC1` (stereo not drawn) [Example I-02], the pest or weed control at 500 ppm was 80 to 89%.
As to `C#Cc1cncn1CC(O)(Cc1ccccc1Cl)C1(Cl)CC1` (stereo not drawn) [Example I-38], the pest or weed control at 500 ppm lay within 80 to 89%.
As to `N#Cc1cncn1CC(O)(Cc1cccc(F)c1F)C1(F)CC1` (stereo not drawn) [Example I-95], the pest or weed control at 500 ppm fell in the range of 90 to 100%.

The next series concerns Phakopsora pachyrhizi. Briefly: In vivo preventive Phakopsora test (soybeans), Example I. Conditions: 168 h, 100 ppm of active ingredient, preventive spray, evaluated 7 days after inoculation, read-out: efficacy.
Turning to `C#Cc1cncn1CC(O)(Cc1ccccc1Cl)C1(Cl)CC1` (stereo not drawn) [Example I-38], the pest or weed control at 100 ppm is 90 to 100%.
Take `N#Cc1cncn1CC(O)(Cc1cccc(F)c1F)C1(F)CC1` (stereo not drawn) [Example I-95]: the pest or weed control at 100 ppm was in the range of 90 to 100%.

A further series has as its system Sphaerotheca fuliginea. Description: In vivo preventive test on Sphaerotheca fuliginea (powdery mildew on cucurbits), Examples F and R6. Conditions: Podosphaera fuliginea, 360 h; 500 ppm of active ingredient; gherkin, preventive spray, evaluated 15 days after inoculation; read-out: efficacy.
`OC(Cc1ccccc1Cl)(Cn1cncc1Cl)C1(Cl)CC1` (stereo not drawn) [Example I-02]: the pest or weed control at 500 ppm fell in the range of 90 to 100%.
For the compound `C#Cc1cncn1CC(O)(Cc1ccccc1Cl)C1(Cl)CC1` (stereo not drawn) [Example I-38], the pest or weed control at 500 ppm lay in the range of 90 to 100%.
On the same count and under the same terms, the value for `N#Cc1cncn1CC(O)(Cc1cccc(F)c1F)C1(F)CC1` (stereo not drawn) [Example I-95] was 90 to 100%.

The subject of another series is Uromyces appendiculatus. Briefly: In vivo preventive test on Uromyces appendiculatus (bean rust), Examples G and R7. Conditions: 264 h, 500 ppm of active ingredient, bean, preventive spray, evaluated 11 days after inoculation, read-out: efficacy.
Consider `OC(Cc1ccccc1Cl)(Cn1cncc1Cl)C1(Cl)CC1` (stereo not drawn) [Example I-02], for which the pest or weed control at 500 ppm was 90 to 100%.
With `C#Cc1cncn1CC(O)(Cc1ccccc1Cl)C1(Cl)CC1` (stereo not drawn) [Example I-38], the pest or weed control at 500 ppm fell in the range of 90 to 100%.
In the case of `N#Cc1cncn1CC(O)(Cc1cccc(F)c1F)C1(F)CC1` (stereo not drawn) [Example I-95], the pest or weed control at 500 ppm lay within 90 to 100%.
